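Each compound was tested at five concentrations against cells in 96-well plates for 48 hours. GI50: concentration for 50% inhibition of growth.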 The source made the active and inactive calls. Cut-off read from the data, not from the text of the source: active = GI50 up to about 1.1 µM and inactive = higher.
Columns and labels:
Assay in all cases: growth of human tumour cells (NCI), 48 h
IGROV-1 = system: IGROV-1
UO-31 = system: UO-31
SF-295 = system: SF-295
RXF 393 = system: RXF 393
KM12 = system: KM12
CCRF-CEM = system: CCRF-CEM
SR = system: SR
SNB-19 = system: SNB-19
NCI-H226 = system: NCI-H226
SK-MEL-28 = system: SK-MEL-28
OVCAR-8 = system: OVCAR-8
EKVX = system: EKVX
NCI-H522 = system: NCI-H522
U-251 = system: U-251
K562 = system: K562
NCI/ADR-RES = system: NCI/ADR-RES
MCF7 = system: MCF7
DU-145 = system: DU-145
MDA-MB-231 = system: MDA-MB-231

Row | SMILES | GI50 (IGROV-1) | GI50 (UO-31) | GI50 (SF-295) | GI50 (RXF 393) | GI50 (KM12) | GI50 (CCRF-CEM) | GI50 (SR) | GI50 (SNB-19) | GI50 (NCI-H226) | GI50 (SK-MEL-28) | GI50 (OVCAR-8) | GI50 (EKVX) | GI50 (NCI-H522) | GI50 (U-251) | GI50 (K562) | GI50 (NCI/ADR-RES) | GI50 (MCF7) | GI50 (DU-145) | GI50 (MDA-MB-231)
1 | COc1cccc(NC(=O)C(C)(C)C)c1SSc1c(NC(=O)C(C)(C)C)cccc1OC | > 81.1 µM (inactive) | 31.5 µM (inactive) | 36.9 µM (inactive) | 20.3 µM (inactive) | 26.9 µM (inactive) | 17.1 µM (inactive) | 19.2 µM (inactive) | 59 µM (inactive) | > 53.8 µM (inactive) | 32.7 µM (inactive) | 19.3 µM (inactive) | 64.1 µM (inactive) | 14.2 µM (inactive) | 17.3 µM (inactive) | 22.9 µM (inactive) |  |  |  | 
2 | CN(C)C(=O)Nc1c([N+](=O)[O-])cc(C(F)(F)F)cc1[N+](=O)[O-] | > 100 µM (inactive) | > 100 µM (inactive) | 63.4 µM (inactive) | 8.45 µM (inactive) | 37 µM (inactive) | 79.1 µM (inactive) | 58.7 µM (inactive) | > 100 µM (inactive) | > 100 µM (inactive) | > 100 µM (inactive) | 40.4 µM (inactive) | > 100 µM (inactive) | 29.9 µM (inactive) | > 100 µM (inactive) | 37.6 µM (inactive) |  |  |  | 
3 | Nc1nc2ncn(CC(O)COC(=O)c3ccccc3)c2c(=O)[nH]1 (configuration not stated) | > 100 µM (inactive) | > 100 µM (inactive) | > 100 µM (inactive) | > 100 µM (inactive) | > 100 µM (inactive) | > 100 µM (inactive) | > 100 µM (inactive) |  | > 100 µM (inactive) | > 100 µM (inactive) | > 100 µM (inactive) | > 100 µM (inactive) | > 100 µM (inactive) | > 100 µM (inactive) | > 100 µM (inactive) |  |  |  | 
4 | COc1ccc(/C=N/Nc2nc3ccccc3c(=O)n2-c2ccccc2)c(OCc2ccccc2)c1 | > 100 µM (inactive) | > 100 µM (inactive) | > 100 µM (inactive) | > 100 µM (inactive) | > 100 µM (inactive) | > 100 µM (inactive) | > 100 µM (inactive) | > 100 µM (inactive) | > 100 µM (inactive) | > 100 µM (inactive) | > 100 µM (inactive) | 33.9 µM (inactive) | > 100 µM (inactive) | > 100 µM (inactive) | > 100 µM (inactive) | > 100 µM (inactive) | 0.226 µM (active) | > 100 µM (inactive) | 88.7 µM (inactive)
5 | CC(C)C(NCc1c2ccccc2[n+](C)c2ccccc12)C(=O)O (configuration not stated) | 8.59 µM (inactive) | 8.07 µM (inactive) | 6.76 µM (inactive) | 3.48 µM (inactive) | 4.91 µM (inactive) | 0.627 µM (active) | 0.748 µM (active) | 15.5 µM (inactive) | 14.7 µM (inactive) | 12.9 µM (inactive) | 3.78 µM (inactive) | 10.6 µM (inactive) | 2.15 µM (inactive) | 7.28 µM (inactive) | 0.782 µM (active) |  |  |  | 
6 | CCOC(=O)CN(Cc1ccccc1)Cc1c(C(=O)c2ccccc2)c2ccccc2n1C(=O)c1ccccc1 | > 100 µM (inactive) | > 100 µM (inactive) | > 100 µM (inactive) | > 10 µM (inactive) | > 100 µM (inactive) | > 100 µM (inactive) | 41 µM (inactive) | > 100 µM (inactive) | 60 µM (inactive) | > 100 µM (inactive) | > 100 µM (inactive) | > 100 µM (inactive) | > 100 µM (inactive) | > 100 µM (inactive) | > 100 µM (inactive) |  |  |  | 
7 | N#CC(N)(C(=O)C(=O)NCCCNC(=O)C(=O)C(N)(C#N)c1ccc(Cl)cc1)c1ccc(Cl)cc1 (configuration not stated) | > 100 µM (inactive) | > 100 µM (inactive) | > 100 µM (inactive) | > 100 µM (inactive) | > 100 µM (inactive) | > 100 µM (inactive) | > 100 µM (inactive) | > 100 µM (inactive) | > 100 µM (inactive) | > 100 µM (inactive) | > 100 µM (inactive) | > 100 µM (inactive) | > 100 µM (inactive) | > 100 µM (inactive) | 95.3 µM (inactive) |  |  |  | 
8 | Cc1cccc(C2SCc3nc4ccccc4n32)c1 (configuration not stated) | 24.5 µM (inactive) |  | 30.8 µM (inactive) | 14.9 µM (inactive) | 19.8 µM (inactive) | 31.8 µM (inactive) | 17.1 µM (inactive) |  | 24.1 µM (inactive) | 26.1 µM (inactive) | 36.1 µM (inactive) | 18.9 µM (inactive) | 17.7 µM (inactive) | 19.7 µM (inactive) | 14.2 µM (inactive) |  |  |  | 
9 | CS/C(c1ccccc1)=[N+](\[O-])Cc1ccccc1 | > 100 µM (inactive) | > 100 µM (inactive) | > 100 µM (inactive) | > 100 µM (inactive) | > 100 µM (inactive) | 39.4 µM (inactive) | 20 µM (inactive) | > 100 µM (inactive) | > 100 µM (inactive) | > 100 µM (inactive) | > 100 µM (inactive) | > 100 µM (inactive) | 90.2 µM (inactive) | > 100 µM (inactive) | > 100 µM (inactive) |  |  |  | 
10 | COC(=O)CCC1CCc2c(OC)ccc(O)c2C1=O (configuration not stated) | > 100 µM (inactive) | 55.8 µM (inactive) | > 100 µM (inactive) | > 100 µM (inactive) | > 100 µM (inactive) | > 100 µM (inactive) | > 100 µM (inactive) | > 100 µM (inactive) | 28.7 µM (inactive) | > 100 µM (inactive) | > 100 µM (inactive) | > 100 µM (inactive) | > 100 µM (inactive) | > 100 µM (inactive) | > 100 µM (inactive) |  |  |  | 
11 | CC1=CC(=O)CCC2(C)C1CC[C@@H]2OC=O (some centres not stated) | > 100 µM (inactive) | > 100 µM (inactive) | > 100 µM (inactive) | > 100 µM (inactive) | > 100 µM (inactive) | > 100 µM (inactive) | > 100 µM (inactive) | > 100 µM (inactive) | > 100 µM (inactive) | > 100 µM (inactive) | > 100 µM (inactive) | > 100 µM (inactive) | > 100 µM (inactive) | > 100 µM (inactive) | > 100 µM (inactive) |  |  |  | 
12 | COC(=O)c1cc2c3ccccc3n(C(C)=O)c2cn1 | 40.4 µM (inactive) | > 100 µM (inactive) | > 100 µM (inactive) | 43.9 µM (inactive) | 80.5 µM (inactive) | 38.8 µM (inactive) | 45.6 µM (inactive) | > 100 µM (inactive) | > 100 µM (inactive) | > 100 µM (inactive) | 56.4 µM (inactive) | 51.2 µM (inactive) | 53.1 µM (inactive) | > 100 µM (inactive) | 59.2 µM (inactive) |  |  |  | 
13 | COP1(=S)OCC2CCC[C@@H]2O1 (some centres not stated) | > 100 µM (inactive) | > 100 µM (inactive) | > 100 µM (inactive) | > 100 µM (inactive) | > 100 µM (inactive) | > 100 µM (inactive) | > 100 µM (inactive) | > 100 µM (inactive) | > 100 µM (inactive) | > 100 µM (inactive) | > 100 µM (inactive) |  | > 100 µM (inactive) | > 100 µM (inactive) | > 100 µM (inactive) | > 100 µM (inactive) |  | > 100 µM (inactive) | > 100 µM (inactive)
14 | COc1ccc(-c2cc3ccccc3[nH]c2=O)cc1OC | > 100 µM (inactive) | > 100 µM (inactive) | > 100 µM (inactive) | 47.5 µM (inactive) | > 100 µM (inactive) | > 100 µM (inactive) | > 100 µM (inactive) | > 100 µM (inactive) | > 100 µM (inactive) | > 100 µM (inactive) | > 100 µM (inactive) | > 100 µM (inactive) | > 100 µM (inactive) | 71.6 µM (inactive) | > 100 µM (inactive) |  |  |  | 
15 | Nc1ccc(COC(O)CN2CCCCC2)cc1[N+](=O)[O-] (configuration not stated) | > 100 µM (inactive) | > 100 µM (inactive) | > 100 µM (inactive) | > 100 µM (inactive) | > 100 µM (inactive) | > 100 µM (inactive) | > 100 µM (inactive) | > 100 µM (inactive) | > 100 µM (inactive) | > 100 µM (inactive) | > 100 µM (inactive) |  | > 100 µM (inactive) | > 100 µM (inactive) | > 100 µM (inactive) | > 100 µM (inactive) | > 100 µM (inactive) | > 100 µM (inactive) | > 100 µM (inactive)
16 | O=P(O)(CN1CCN(CP(=O)(O)c2ccccc2)CCN(CP(=O)(O)c2ccccc2)CC1)c1ccccc1 | > 100 µM (inactive) | > 100 µM (inactive) | > 100 µM (inactive) | 80 µM (inactive) | 47.9 µM (inactive) | > 100 µM (inactive) |  | > 100 µM (inactive) | > 100 µM (inactive) | > 100 µM (inactive) | > 100 µM (inactive) | > 100 µM (inactive) |  | 47.8 µM (inactive) | > 100 µM (inactive) | > 100 µM (inactive) | 28.1 µM (inactive) | > 100 µM (inactive) | 
17 | NC1=NC(=O)C2(NN1)c1ccccc1-c1ccccc12 | > 10 µM (inactive) | > 10 µM (inactive) | > 10 µM (inactive) | > 10 µM (inactive) | > 10 µM (inactive) | > 10 µM (inactive) | > 10 µM (inactive) | > 10 µM (inactive) | > 10 µM (inactive) | > 10 µM (inactive) | > 10 µM (inactive) |  |  | 7.62 µM (inactive) | 9.82 µM (inactive) | 7.41 µM (inactive) | 3.26 µM (inactive) |  | 
